Assay results as given in US4713367A, “Retro-inverso analogs of the bradykinin potentiating peptide BPP5a” (Enichem S.p.A., priority 1986, dated 1987).
*1 amine or outer side, *2 acyl side, *3 side chain or, on linkers, in order; H or OH if unused. Where a SMILES comes first, the peptide text is derived from it. [ ]: non-standard residue; d: D form. X1 = O=C([C@@H]1C[C@H](Sc2ccccc2)CN1[*:1])[*:2]; pGlu = O=C1CC[C@@H](C(=O)O)N1

Key:
[1] = tested on: angiotensin converting enzyme; assay: Degradation in vitro by the angiotensin converting enzyme; type: in vitro ADME; details: in the presence of the angiotensin converting enzyme
[2] = target: T1, angiotensin converting enzyme (Oryctolagus cuniculus, UniProt P12822); assay: Inhibition of the angiotensin converting enzyme (IC50); type: biochemical, rabbit; details: for IC50: enzyme isolated from rabbit lungs (Cushman and Cheung)
T1 construct: The enzyme employed in this test has been isolated from rabbit lungs; from tissue; host or cells: rabbit lungs
T1 sequence (P12822 34-1310): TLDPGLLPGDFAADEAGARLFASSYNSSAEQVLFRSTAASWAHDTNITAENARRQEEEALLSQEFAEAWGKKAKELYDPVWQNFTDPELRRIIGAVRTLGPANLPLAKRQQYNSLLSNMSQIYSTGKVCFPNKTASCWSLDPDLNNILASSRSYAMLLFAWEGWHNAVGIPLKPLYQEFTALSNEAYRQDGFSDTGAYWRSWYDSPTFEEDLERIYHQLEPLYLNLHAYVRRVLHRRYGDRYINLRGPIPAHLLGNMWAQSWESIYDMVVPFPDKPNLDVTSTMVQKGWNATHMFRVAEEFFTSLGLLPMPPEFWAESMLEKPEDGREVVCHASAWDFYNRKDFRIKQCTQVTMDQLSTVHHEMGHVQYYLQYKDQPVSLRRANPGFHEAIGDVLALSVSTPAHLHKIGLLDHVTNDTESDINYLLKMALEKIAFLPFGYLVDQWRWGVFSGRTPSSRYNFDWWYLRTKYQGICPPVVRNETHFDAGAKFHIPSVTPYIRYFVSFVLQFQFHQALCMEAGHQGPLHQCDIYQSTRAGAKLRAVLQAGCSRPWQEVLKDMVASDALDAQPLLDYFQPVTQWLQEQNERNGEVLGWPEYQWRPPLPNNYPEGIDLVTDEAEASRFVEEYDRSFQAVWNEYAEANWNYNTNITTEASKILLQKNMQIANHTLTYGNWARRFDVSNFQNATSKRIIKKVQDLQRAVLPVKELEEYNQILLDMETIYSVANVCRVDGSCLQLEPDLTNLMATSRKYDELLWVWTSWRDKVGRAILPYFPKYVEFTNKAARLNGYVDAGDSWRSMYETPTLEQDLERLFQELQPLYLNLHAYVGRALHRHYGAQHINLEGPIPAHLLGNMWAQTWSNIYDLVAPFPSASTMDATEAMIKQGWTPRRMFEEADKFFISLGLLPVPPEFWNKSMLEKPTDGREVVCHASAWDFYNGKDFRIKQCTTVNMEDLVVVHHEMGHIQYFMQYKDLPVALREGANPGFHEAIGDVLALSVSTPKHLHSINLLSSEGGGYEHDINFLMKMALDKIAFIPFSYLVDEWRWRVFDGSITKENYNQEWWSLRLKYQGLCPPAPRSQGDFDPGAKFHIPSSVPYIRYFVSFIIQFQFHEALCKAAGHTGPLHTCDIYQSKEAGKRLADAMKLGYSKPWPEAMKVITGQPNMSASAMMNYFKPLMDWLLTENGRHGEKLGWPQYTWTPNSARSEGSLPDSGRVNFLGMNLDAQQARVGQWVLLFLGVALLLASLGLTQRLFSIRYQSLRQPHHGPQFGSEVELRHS
Description: In particular, comparative experiments carried out […] in order to evaluate the ACE inhibitory activity of the compounds of the present invention gave the results reported in following table I (IC50 represents the concentration of the test compound, in μM, which inhibits the angiotensin converting enzyme by 50%. The enzyme employed in this test has been isolated from rabbit lungs according to the method by Cushman and Cheung described in Biochem. Pharmacol. 20, 1637, (1971)).

[3] = tested on: angiotensin converting enzyme; details: 15 minutes of preincubation; cited from earlier work
[4] = induced experimentally in rats; cited from earlier work
[5] = tested on: bradykinin; details: bradykinin injected directly into the coronary arteries; cited from earlier work
[6] = tested on: angiotensin I; details: infused directly into the brain; cited from earlier work
[7] = Hypotensive effect in anesthetized normotensive rats; type: in vivo, rat; details: injected intravenously at 0.18 mg/Kg
Description: In vivo experiments carried out in anesthetized normotensive rats confirmed a hypotensive effect of the compounds of the invention as compound (a), when injected intravenously at a dosage of 0.18 mg/Kg, produced a blood pressure decrease of about 20 mmHg.

| SMILES | degradation by / resistance towards cleavage by ACE [1] | IC50 [2] | also measured |
| --- | --- | --- | --- |
| C[C@H](C(=O)N[C@H](Cc1ccccc1)NC(=O)[C@H](CCCCN)NC(=O)[C@@H]1CCC(=O)N1)C(=O)N1C[C@@H](Sc2ccccc2)C[C@H]1C(=O)O [(b), Glp--Lys--gPhe--(R)mAla--Pro(S--Ph)--OH] | complete resistance | – | – |
| C[C@H](NC(=O)[C@H](Cc1ccccc1)NC(=O)[C@H](CCCCN)NC(=O)[C@@H]1CCC(=O)N1)C(=O)N1CCC[C@H]1C(=O)O [(c), Glp--Lys--Phe--Ala--Pro--OH] ([pGlu]KFAP-OH) | quickly degraded | 100 nM | – |
| C[C@H](NC(=O)[C@H](Cc1c[nH]c2ccccc12)NC(=O)[C@H](CCCCN)NC(=O)[C@@H]1CCC(=O)N1)C(=O)N1CCC[C@H]1C(=O)O [(d), Glp--Lys--Trp--Ala--Pro--OH] ([pGlu]KWAP-OH) | quickly degraded | 100 nM | inhibitory activity after preincubation with the angiotensin converting enzyme [3]: complete loss of inhibitory activity; control of reno-vascular hypertension [4]: capable of controlling; in vivo activity of bradykinin [5]: potentiates; CNS-mediated hypertensive and tachycardic action of angiotensin I [6]: inhibits |
| C[C@H](NC(=O)[C@H](Cc1ccccc1)NC(=O)[C@H](CCCCN)NC(=O)[C@@H]1CCC(=O)N1)C(=O)N1C[C@@H](Sc2ccccc2)C[C@H]1C(=O)O [(e), Glp--Lys--Phe--Ala--Pro(S--Ph)--OH] ([pGlu]KFA[X1]-OH) | quickly degraded | 60 nM | – |
| C[C@@H](C(=O)N[C@H](Cc1ccccc1)NC(=O)[C@H](CCCCN)NC(=O)[C@@H]1CCC(=O)N1)C(=O)N1CCC[C@H]1C(=O)O [(f), Glp--Lys--gPhe--(S)mAla--Pro--OH] | complete resistance | – | – |
| C[C@H](C(=O)N[C@H](Cc1ccccc1)NC(=O)[C@H](CCCCN)NC(=O)[C@@H]1CCC(=O)N1)C(=O)N1CCC[C@H]1C(=O)O [(g), Glp--Lys--gPhe--(R)mAla--Pro--OH] | complete resistance | – | – |
| CC(C(=O)N[C@H](Cc1ccccc1)NC(=O)[C@H](CCCCN)NC(=O)[C@@H]1CCC(=O)N1)C(=O)N1CCC[C@H]1C(=O)O (stereo partly drawn) [Glp-Lys-gPhe-mAla-Pro-OH] | – | – | IC50 relative to that of the natural product (BPP5a) or the uninverted peptide Glp-Lys-Phe-Ala-Pro-OH ([2]; in vitro): more than 1000 times higher |
| C[C@@H](C(=O)N[C@H](Cc1ccccc1)NC(=O)[C@H](CCCCN)NC(=O)[C@@H]1CCC(=O)N1)C(=O)N1C[C@@H](Sc2ccccc2)C[C@H]1C(=O)O [compound (a), Glp--Lys--gPhe--(S)mAla--Pro(S--Ph)--OH] | complete resistance | – | blood pressure decrease [7]: about 20 mmHg |
